Results reported in PMC8840081, “Phenylalanine-Based AMPA Receptor Antagonist as the Anticonvulsant Agent with Neuroprotective Activity—In Vitro and In Vivo Studies” (Molecules, 2022).

Tests used:
[1] = system: 6-Hz psychomotor seizures in mice; test: 6-Hz test; format: in vivo; details: 100 mg/kg i.p.
Method: (§1) Behavioral experiments were carried out in male Albino Swiss (CD-1) mice weighing 18–22 g. The mice were kept in cages, in groups of 10 animals. They had free access to food and water before experiments, and were maintained at room temperature 22–24 °C, under 12:12 (light/dark) cycle. For the assays the animals were selected randomly. After the experiments the animals were euthanized by cervical dislocation. Experimental procedures for in vivo tests were approved by the Local Ethics Committee of the Jagiellonian University in Krakow (Approval No. 33/2018; release date: 1.02.2018) and the treatment of animals was performed in full accordance with ethical standards laid down in respective Polish and EU regulations (Directive 2010/63/EU).
(§2) Oxaliplatin was purchased from Activate Scientific GmbH (Prien, Germany). PTZ and STZ were provided by Merck KGaA (Darmstadt, Germany). For the in vivo tests, the compound 1 was suspended in 1% Tween 80 solution (Polskie Odczynniki Chemiczne, Gliwice, Poland), then being administered intraperitoneally 1 h before tests. For the evaluation of anticonvulsant properties of the test compound, a fixed dose of 100 mg/kg, was used. Since many AEDs at lower doses are used as analgesic drugs, for pain tests the doses 10 and 30 mg/kg were selected.
This test was performed according to Barton et al.. […]

[2] = system: tactile allodynia in oxaliplatin-treated mice; test: oxaliplatin-induced neuropathic pain model, von Frey test; format: in vivo; details: 10 and 30 mg/kg i.p., early and late phase
Method: as §1
as §2, with “selected. […]” for “selected.”

[3] = system: SH-SY5Y neuroblastoma cells; test: neuroprotection against 6-OHDA-induced LDH release; format: cell-based, human; details: compound 50 µM
Method: (§3) All cell culture protocols and assay conditions were applied as we reported previously. SH-SY5Y (ATCC® CRL-2266™) cell line was purchased from ATCC (Manassas, VA, USA). IMR-32 (ATCC® CCL-127™) cell line was kindly provided by the Department of Oncogenomics, Academisch Medisch Centrum, Amsterdam, Holland. Before each test SH-SY5Y or IMR-32 cells were seeded in 96-well plates with transparent bottom at a concentration of 2.5 × 10^4 cells/well in 100 μL of respective cell culture medium and cultured for 24 h to reach 70% confluence. • Cell Viability
(§4) CytoTox-ONE™ Homogeneous Membrane Integrity Assay, which based on the LDH release, was purchased from Promega (Madison, WI, USA). SH-SY5Y or IMR-32 cells were seeded in 96-well white plates with transparent bottom. For neuroprotective studies, the cells were preincubated first for 1 h with compound 1, 8 or reference antioxidants AA, TX (all at the concentration of 50 μM) and next the neurotoxin 6-OHDA (Sigma-Aldrich, Inc., St. Louis, MO, USA) was added at final concentration of 50 μM (SH-SY5Y assay) or 200 µM (IMR-32 assay). After 24 h of incubation, the CytoTox-ONE™ was added to each well and the cells were incubated next for 10 min at room temperature. The fluorescence was measured using a microplate reader EnSpire (PerkinElmer, Waltham, MA, USA) with an excitation wavelength of 560 nm and an emission wavelength of 590 nm. All measurements were performed in triplicate and results are shown as mean ± SD. The similar studies were also performed with SH-SY5Y cells injured by 100 μM of 6-OHDA (Figure S1, Supporting Materials). • ROS Assay

[4] = system: IMR-32 neuroblastoma cells; test: neuroprotection against 6-OHDA-induced LDH release; format: cell-based, human; details: IMR-32, compound 50 µM, 1 h pretreatment, 200 µM 6-OHDA, 24 h
Method: as §3, §4

[5] = system: heat hyperalgesia in diabetic mice; test: diabetic (STZ) neuropathic pain model, hot plate test; format: in vivo; details: 30 mg/kg i.p.
Method: as §1
Oxaliplatin was purchased from Activate Scientific GmbH (Prien, Germany). PTZ and STZ were provided by Merck KGaA (Darmstadt, Germany). […]
To induce type I diabetes and diabetic neuropathic pain, mice were administered STZ, an alkylating antitumor drug that destroys insulin-secreting islet cells. […] Blood glucose levels were measured 1 day before (referred to as ‘day 0′) and repeatedly 1, 2 and 3 weeks after STZ injection using a blood glucose monitoring system (AccuChek Active, Roche, France). […]
The effect of 1 on heat hyperalgesia was assessed using the hot plate test. […]

NC(Cc1cc(-c2cc(O)ccc2O)c(Cl)c([N+](=O)[O-])c1)C(=O)O (stereo not shown) [Compound 1]
Mortality rate (%) [1]: 0% | X/Y, number of mice protected (X) per number of mice tested (Y) ([1]; 1 h before test): 3/4 | effect on tactile allodynia, von Frey test [2]: not effective | 6-OHDA-induced release of LDH (neuroprotection) ([3]; 100 µM 6-OHDA): neuroprotective effect was not observed | 6-OHDA-induced release of LDH (neuroprotection) ([3]; 1 h pretreatment, 50 µM 6-OHDA, 24 h): statistically significant decrease | 6-OHDA-induced release of LDH (neuroprotection) [4]: statistically significant decrease | antihyperalgesic activity, hot plate test (latency to pain reaction) [5]: antihyperalgesic activity was not observed
